Experimental data as given in patent publication US11525155B2, “Stabilisation of biological samples” (QIAGEN GmbH, priority 2013, dated 2022).
Non-standard residues stand in square brackets, D forms with d. *: point of attachment. Nle = CCCC[C@H](N)C(=O)O; Cbz = O=C(OCc1ccccc1)*; CH2F = FC*

Legend:
apoptosis = details: cited from earlier work
18S ribosomal DNA = assay: Stabilization of extracellular nucleic acid population in whole blood, 18S rDNA qPCR (66 bp and 500 bp amplicon); assay type: cell-based, human; details: 7.2 mg/ml K2 EDTA, 3 and 6 days RT
Procedure: Blood obtained from donors was collected into 10 ml K2 EDTA tubes (BD). 4.5 ml of the respectively collected blood was mixed with 0.9 ml of different stabilization solutions (see below examples on the details of the tested stabilization solutions).
All stabilized blood samples were set up in triplicates per condition and test time point. At time point 0 (reference), immediately after mixing the stabilization solution and blood, plasma was generated and the circulating extracellular DNA was extracted. The residual stabilized blood sample was stored for three days and six days at room temperature.
As a reference control, the EDTA stabilized blood sample (collected in K2 EDTA tubes without further additives) was also stored for 3 and 6 days. […] DMAA stabilized samples as tested herein always included additionally a caspase inhibitor. No DMAA containing stabilizing solutions without caspase inhibitor were tested in the subsequent examples.
Plasma was generated from the stabilized and unstabilized (EDTA) blood samples by inverting the blood containing tubes for four times. Then, the tubes were centrifuged for 10 minutes at 1900×g at 4° C. 2.5 ml of the plasma fraction was transferred into a fresh 15 ml falcon tube and centrifuged for 10 minutes at 16.000×g at 4° C. 2 ml of the respectively cleared plasma was used for extracellular nucleic acid isolation using the QIAamp circulating nucleic acid kit (QIAGEN) according to the manufacturer's instructions.
The isolated extracellular DNA was analyzed using two different qPCR assays, targeting different fragment lengths of the 18S ribosomal DNA:
Cycle threshholds of the individual samples were translated into amount of gDNA in the eluate, according to a gDNA standard curve. The gDNA amount of the storage time points was compared to the time zero gDNA level from the same donor and is shown as fold increase in the figures. Especially the increase of the 500 bp fragment in the plasma fraction of the blood sample after storage is an indication for a lysis/destruction of white blood cells. Thus, the lower the amount of released 500 bp DNA, the better the performance of the stabilization method.
The figures corresponding to the subsequently described examples show the increase of DNA relative to time point 0 with the different stabilization solutions (fold change) using different amplicon lengths of 18S rRNA gene. Bars indicate the mean of the triplicate samples per condition and test time point.

white blood cells [1] = assay: Microscopic evaluation of blood smears (cell morphology/integrity); assay type: cell-based; details: EDTA blood, final 5% v/v formamide, 0.5× MOPS pH5.5, RT up to three days
white blood cells [2] = assay: Flow cytometry analysis of cell integrity; assay type: cell-based; details: EDTA blood mixed with test solution (5% v/v formamide)
Procedure: FIG. 6: Flow cytometry (FC) analysis of peripheral blood samples of one donor of example 1. Blood was directly drawn into BD EDTA tubes and PreAnalytiX PAXgene Blood RNA Tubes (PAXgene). […] Immediately after collection and treatment of samples, blood aliquots were analysed without incubation (0 h samples), while remaining samples were incubated at RT for one and three days (24 h and 72 h samples) prior to FC analysis. Shown per picture are the size (x-axis=forward scatter) and granularity (y-axis=sideward scatter) of 10,000 events per sample aliquot tested that contain signals of cells, cell debris and particles. The different populations of white blood cells that are distinguishable from each other in FC analysis (L, M, NG) and the cell-free fraction (D) are indicated by circles for the (+) control (EDTA) sample. They are as follows:
Where indicated, cell morphology was investigated by microscopic evaluation of blood smears and cell integrity by flow cytometry (FC).
The results obtained by microscopic analysis were verified by the analysis of cell integrity with flow cytometry. […] However, not all white blood cells may be equally well stabilized during longer stabilization periods. However, intact cells were detected and the detected cell populations are important for certain diagnostic applications which aim e.g. at the analysis of lymphocytes.

cathepsin L = cathepsin L (Homo sapiens, UniProt P07711); details: cited from earlier work
calpain II = molecular target: T1, calpain II (Homo sapiens, UniProt P17655); details: cited from earlier work
T1 sequence (P17655 1-700): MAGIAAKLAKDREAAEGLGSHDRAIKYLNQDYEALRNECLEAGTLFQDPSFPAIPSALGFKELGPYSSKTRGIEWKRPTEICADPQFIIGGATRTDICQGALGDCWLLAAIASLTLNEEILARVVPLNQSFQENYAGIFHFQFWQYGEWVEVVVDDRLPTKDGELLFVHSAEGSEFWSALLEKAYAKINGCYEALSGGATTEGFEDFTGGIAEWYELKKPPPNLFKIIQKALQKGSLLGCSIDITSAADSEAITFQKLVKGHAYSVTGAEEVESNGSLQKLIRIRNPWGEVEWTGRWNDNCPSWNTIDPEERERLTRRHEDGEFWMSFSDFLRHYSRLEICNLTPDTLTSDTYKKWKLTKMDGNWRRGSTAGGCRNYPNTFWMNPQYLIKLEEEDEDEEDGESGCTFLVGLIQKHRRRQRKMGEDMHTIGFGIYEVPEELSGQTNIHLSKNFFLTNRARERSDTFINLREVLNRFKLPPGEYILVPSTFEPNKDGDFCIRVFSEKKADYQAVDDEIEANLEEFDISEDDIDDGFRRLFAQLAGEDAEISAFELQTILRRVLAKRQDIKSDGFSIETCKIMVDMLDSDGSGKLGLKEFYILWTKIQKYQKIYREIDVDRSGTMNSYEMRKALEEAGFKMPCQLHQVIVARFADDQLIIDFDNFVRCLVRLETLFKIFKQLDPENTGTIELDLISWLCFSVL
T1 sequence (P04632 1-268 partner): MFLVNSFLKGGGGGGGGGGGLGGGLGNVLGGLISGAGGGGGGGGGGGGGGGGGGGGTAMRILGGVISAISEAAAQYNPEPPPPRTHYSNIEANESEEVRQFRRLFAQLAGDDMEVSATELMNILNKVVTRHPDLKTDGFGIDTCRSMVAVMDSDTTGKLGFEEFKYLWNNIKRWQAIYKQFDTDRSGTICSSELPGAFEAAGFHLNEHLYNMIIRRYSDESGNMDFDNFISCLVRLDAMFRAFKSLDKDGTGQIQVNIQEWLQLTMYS

calpain I = molecular target: T2, calpain I (Homo sapiens, UniProt P07384); details: cited from earlier work
T2 sequence (P07384 1-714): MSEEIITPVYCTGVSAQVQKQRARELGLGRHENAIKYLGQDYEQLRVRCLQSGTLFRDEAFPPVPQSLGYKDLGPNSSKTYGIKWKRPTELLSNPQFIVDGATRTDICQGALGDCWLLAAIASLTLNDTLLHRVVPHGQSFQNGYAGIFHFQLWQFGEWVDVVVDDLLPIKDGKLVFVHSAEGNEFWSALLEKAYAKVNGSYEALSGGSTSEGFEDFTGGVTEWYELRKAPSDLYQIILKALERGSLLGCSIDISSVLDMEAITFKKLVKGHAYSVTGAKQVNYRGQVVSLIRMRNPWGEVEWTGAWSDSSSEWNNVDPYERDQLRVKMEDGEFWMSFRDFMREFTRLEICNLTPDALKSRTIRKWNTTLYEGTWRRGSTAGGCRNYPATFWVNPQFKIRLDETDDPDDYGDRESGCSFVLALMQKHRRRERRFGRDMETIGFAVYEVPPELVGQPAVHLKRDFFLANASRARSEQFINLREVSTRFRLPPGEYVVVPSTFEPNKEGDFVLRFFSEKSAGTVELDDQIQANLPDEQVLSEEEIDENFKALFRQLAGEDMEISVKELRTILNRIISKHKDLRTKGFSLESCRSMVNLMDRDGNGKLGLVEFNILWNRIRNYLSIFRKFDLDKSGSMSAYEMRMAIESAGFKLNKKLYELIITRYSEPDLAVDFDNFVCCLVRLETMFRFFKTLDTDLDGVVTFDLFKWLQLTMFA
T2 sequence (P04632 1-268 partner): T1 sequence (P04632 1-268 partner)

caspase-7 = molecular target: T3, caspase-7 (Homo sapiens, UniProt P55210); details: cited from earlier work
T3 sequence (P55210 24-198 limits assumed): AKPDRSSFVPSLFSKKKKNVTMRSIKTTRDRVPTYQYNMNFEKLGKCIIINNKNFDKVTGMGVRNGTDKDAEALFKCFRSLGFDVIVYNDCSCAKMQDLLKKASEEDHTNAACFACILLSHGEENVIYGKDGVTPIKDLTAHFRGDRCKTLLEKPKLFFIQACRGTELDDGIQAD
T3 sequence (P55210 207-303 limits assumed): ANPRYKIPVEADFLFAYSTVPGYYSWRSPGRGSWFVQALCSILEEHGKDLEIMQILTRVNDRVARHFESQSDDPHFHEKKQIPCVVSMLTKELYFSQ

caspase-3 = molecular target: T4, caspase-3 (Homo sapiens, UniProt P42574); details: cited from earlier work
T4 sequence (P42574 29-175 limits assumed): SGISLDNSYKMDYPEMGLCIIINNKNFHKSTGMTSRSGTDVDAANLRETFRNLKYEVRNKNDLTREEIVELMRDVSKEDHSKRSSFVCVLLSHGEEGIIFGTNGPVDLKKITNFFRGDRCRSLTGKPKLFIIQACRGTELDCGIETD
T4 sequence (P42574 176-277 limits assumed): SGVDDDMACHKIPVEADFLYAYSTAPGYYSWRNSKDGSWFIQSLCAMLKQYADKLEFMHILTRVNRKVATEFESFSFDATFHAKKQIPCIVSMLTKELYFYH

red blood cells = assay: Hemolysis in stabilized blood samples; assay type: cell-based; details: butanamide 0.5% (w/v) to 3.5% (w/v) in blood mixture
[3] = buffer; cited from earlier work
[4] = tested on: transcripts of FOS, IL1B, IL8 and TP53; assay: Transcript level stabilisation in blood samples, real time RT-PCR monoplex assays; assay type: cell-based; details: EDTA blood, 2% (w/v) N-methylacetamide, one and three days at RT
[5] = amide alone in different concentrations, without caspase inhibitor
[6] = amide in different concentrations with 1 μM Quinoline-Val-Asp-CH2-OPH (caspase inhibitor)

Chain of cathepsin L (P07711 114-333, species assumed): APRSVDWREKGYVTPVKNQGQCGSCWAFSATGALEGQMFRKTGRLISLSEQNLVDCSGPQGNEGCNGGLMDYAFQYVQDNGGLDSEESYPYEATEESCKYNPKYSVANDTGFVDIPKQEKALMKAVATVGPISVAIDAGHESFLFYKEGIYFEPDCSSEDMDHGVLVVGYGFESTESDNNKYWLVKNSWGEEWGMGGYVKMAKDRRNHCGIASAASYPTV

**Q.** For Quinoline-Val-Asp-CH2-OPH [Q-VD-OPh], which “effectiveness in preventing apoptosis compared with Z-VAD-FMK” value (apoptosis) is on record?
**A.** Its value is “even more effective”.

**Q.** For `NC=O` [formamide], which “increase in 18S rDNA in plasma (stabilization of extracellular nucleic acid population)” value (from here on “increase in 18S rDNA in plasma”) (18S ribosomal DNA; [5]) is on record?
**A.** The value was “significantly reduced increase in 18S rDNA”.

**Q.** What about the “increase in 18S rDNA in plasma” value (18S ribosomal DNA; [6]) of the same compound?
**A.** The value was “uniform stabilization results were obtained”.

**Q.** What about the “white blood cell integrity, microscopy of blood smears” value (white blood cells [1]) of the same compound?
**A.** The value was “did not act lytic on WBC”.

**Q.** And the “lysis of lymphocytes and monocytes, flow cytometry” value (white blood cells [2]; RT up to three days)?
**A.** Its value is “not affected by lysis”.

**Q.** What about the “lysis of neutrophilic granulocytes, flow cytometry” value (white blood cells [2]; longer storage at RT) of the same compound?
**A.** The value was “Some lysis appeared to have occurred”.

**Q.** With “Cbz-Leu-Leu-Tyr-CH2F [Calpain Inhibitor IV]” as the compound, how does the “k2 cathepsin L” value (cathepsin L) read?
**A.** Its value is 680,000 M-1s-1).

**Q.** What about the “k2 calpain II” value (calpain II; irreversible inhibitor) of the same compound?
**A.** The value was 28,900 M-1s-1). Also acts as an inhibitor of cathepsin L (k2 =.

**Q.** With `CC(N)=O` [acetamide] as the compound, how does the “increase in 18S rDNA in plasma” value (18S ribosomal DNA; [6]) read?
**A.** The value was “significantly reduced increase in 18S rDNA”.

**Q.** Which results are given for Ac-Leu-Leu-[Nle]-aldehyde?
**A.** Ki (calpain I): 190 nM; Ki (cathepsin L): 0.5 nM; Ki (calpain II): 150 nM

**Q.** Which results are given for `COC[C@@H]1CCCN1S(=O)(=O)c1ccc2c(c1)C(=O)C(=O)N2` [Caspase-3/7 Inhibitor I]?
**A.** Ki (caspase-7): 170 nM; Ki (caspase-3): 60 nM

**Q.** Which “increase in 18S rDNA in plasma” value (18S ribosomal DNA; [6]) does the source give for `CNC=O` [N-methylformamide] here?
**A.** The value was “significantly reduced increase in 18S rDNA”.

**Q.** For `CCCC(N)=O` [butanamide], which “increase in 18S rDNA in plasma” value (18S ribosomal DNA; [5]) is on record?
**A.** Its value is “significantly reduced increase in 18S rDNA”.

**Q.** What about the “increase in 18S rDNA in plasma” value (18S ribosomal DNA; [6]) of the same compound?
**A.** Its value is “uniform stabilization results were obtained”.

**Q.** What about the “hemolysis of the red blood cells contained in the blood sample” value (red blood cells) of the same compound?
**A.** Its value is “prevents the hemolysis”.

**Q.** With `CCC(N)=O` [propanamide] as the compound, how does the “increase in 18S rDNA in plasma” value (18S ribosomal DNA; [6]) read?
**A.** Its value is “significantly reduced increase in 18S rDNA”.

**Q.** For `N=c1sc2c(n1CC(=O)c1ccc([N+](=O)[O-])cc1)CCCC2` [Pifithrin-α, p-Nitro], which t1/2 [3] is on record?
**A.** The t1/2 was “biological systems (t1/2 = 8h in neuron culture medium at 37° C)”.

**Q.** With `CNC(C)=O` [N-methylacetamide] as the compound, how does the “increase in 18S rDNA in plasma” value (18S ribosomal DNA; [6]) read?
**A.** Its value is “significantly reduced increase in 18S rDNA”.

**Q.** And the “stabilization of transcript levels of FOS, IL1B, IL8, TP53” value [4]?
**A.** Its value is “effective in stabilizing transcript levels for up to three days”.
